#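 Interpolation was linear, between the two tested concentrations surrounding the appropriate level; five concentrations were tested over 48 hours in 96-well plates. TGI marks complete inhibition of growth.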
# Experiments:
# Assay in all cases: NCI-60 cell line screen, 48 h
# 786-0 renal = system: 786-0 renal
# A498 renal = system: A498 renal
# CCRF-CEM leukemia = system: CCRF-CEM leukemia
# K-562 leukemia = system: K-562 leukemia
# KM12 colon = system: KM12 colon
# M14 melanoma = system: M14 melanoma
# MDA-MB-435 = system: MDA-MB-435
# OVCAR-3 ovarian = system: OVCAR-3 ovarian
# OVCAR-4 ovarian = system: OVCAR-4 ovarian
# OVCAR-5 ovarian = system: OVCAR-5 ovarian
# PC-3 prostate = system: PC-3 prostate
# SK-OV-3 ovarian = system: SK-OV-3 ovarian
# TK-10 renal = system: TK-10 renal
# UACC-62 melanoma = system: UACC-62 melanoma
# LOX IMVI melanoma = system: LOX IMVI melanoma
# SF-295 CNS = system: SF-295 CNS
# SK-MEL-2 melanoma = system: SK-MEL-2 melanoma
Compound,TGI (786-0 renal) [µM],TGI (A498 renal) [µM],TGI (CCRF-CEM leukemia) [µM],TGI (K-562 leukemia) [µM],TGI (KM12 colon) [µM],TGI (M14 melanoma) [µM],TGI (MDA-MB-435) [µM],TGI (OVCAR-3 ovarian) [µM],TGI (OVCAR-4 ovarian) [µM],TGI (OVCAR-5 ovarian) [µM],TGI (PC-3 prostate) [µM],TGI (SK-OV-3 ovarian) [µM],TGI (TK-10 renal) [µM],TGI (UACC-62 melanoma) [µM],TGI (LOX IMVI melanoma) [µM],TGI (SF-295 CNS) [µM],TGI (SK-MEL-2 melanoma) [µM]
C[n+]1c(-c2ccc(/C=N\Nc3ccnc(N/N=C/c4ccc(-c5cn6ccsc6[n+]5C)cc4)n3)cc2)cn2ccsc21,32.8,54.8,63.8,> 100,84.5,30.4,6.94,> 100,> 100,> 100,> 100,> 100,> 100,76.4,–,–,–
CC(=O)Nc1ccc2cc(C#N)c(=O)[nH]c2n1,> 100,> 100,–,> 100,> 100,> 100,> 100,> 100,> 100,> 100,> 100,> 100,> 100,–,> 100,> 100,> 100
NN/C(=N\S(=O)(=O)c1cc(S(=O)(=O)c2ccccc2)cs1)Nc1ccc(Cl)cc1,> 100,> 100,69.2,> 100,89.6,48.1,–,54.2,66.5,> 100,69.7,> 100,81.7,43.2,54.9,75.5,38.2
C=C(C)C1Cc2c(cc3c(c2O)c(=O)c2ccccc2n3C)O1 (configuration not stated),2.91,22.1,–,–,5.75,10.6,20.7,27.9,22.3,26.1,19.3,13.5,27,7.57,–,18.2,26.7
CCN(CC)CCC(=O)c1ccc(Cl)c(Cl)c1,31.9,76,50.5,> 100,> 100,> 100,30.8,–,> 100,> 100,> 100,> 100,–,31,30.1,> 100,–
Cc1ccc(S(=O)(=O)NC(=O)NC(CCCCN)C(=O)O)cc1 (configuration not stated),> 100,–,> 100,> 100,> 100,> 100,–,–,> 100,–,> 100,> 100,> 100,> 100,> 100,> 100,> 100
Cc1ccc(NC(=O)CC(=O)N2N=C(N(c3ccccc3)c3ccccc3)CC2c2ccccc2)cc1 (configuration not stated),> 100,> 100,> 100,> 100,> 100,> 100,> 100,> 100,> 100,> 100,> 100,> 100,> 100,> 100,–,> 100,> 100
Cc1cc(C(O)CCCc2ccccc2)cc(C)c1O (configuration not stated),> 100,81.3,> 100,> 100,> 100,> 100,–,> 100,–,> 100,–,> 100,> 100,> 100,> 100,93.9,70.3
O=c1nc(N2CCCCC2)sc2[nH]c3ccccc3c12,> 100,> 100,–,> 100,> 100,> 100,> 100,> 100,> 100,24.8,> 100,> 100,> 100,> 100,> 100,> 100,> 100
CC1=CP(=O)(OC(C)C)C=C(C)C1=C(Cl)Cl (configuration not stated),> 100,–,> 100,> 100,53.7,> 100,–,> 100,> 100,> 100,–,33.4,> 100,> 100,> 100,> 100,59
CN1CC=C(C#CC(C)(C)O)CC1,> 37.5,–,> 37.5,> 37.5,> 37.5,> 37.5,> 37.5,> 37.5,> 37.5,> 37.5,> 37.5,> 37.5,> 37.5,> 37.5,> 37.5,> 37.5,> 37.5
C#CCNCC(=O)O,> 100,> 100,> 100,–,> 100,> 100,> 100,> 100,> 100,> 100,> 100,> 100,> 100,> 100,–,> 100,> 100
O=C1NC(=S)NC(=O)C1=Cc1ccc([N+](=O)[O-])o1,36.5,> 100,73.6,86.7,> 100,29.5,–,–,31.1,34.6,–,> 100,> 100,39.1,38.7,> 100,> 100
O=C(Oc1ccc(C(c2c(O)c3ccccc3oc2=O)c2c(O)c3ccccc3oc2=O)cc1)c1ccc(C(=O)c2ccccc2)cc1,> 100,–,42.8,47.9,30.8,–,42.3,36.5,92.1,38.3,35.8,33.4,37.8,41,52.1,51.3,35.2
C=C(Cl)[C@](Cl)(CBr)CC[C@@H](Br)C(C)(C)Cl,0.552,3.41,46.6,16.3,2.26,30.7,4.03,1.58,3.44,2.98,1.18,25.3,3.4,19.3,32.1,2.23,–
O=S(=O)(Cc1ccccc1)c1nnc(S(=O)(=O)c2ccc(Cl)cc2)s1,49.5,43.6,–,> 100,> 100,33.7,90.6,58.6,> 100,56.8,46.7,47.8,41.9,58.7,–,54.9,50.7

Compound,TGI (786-0 renal) [µM],TGI (A498 renal) [µM],TGI (CCRF-CEM leukemia) [µM],TGI (K-562 leukemia) [µM],TGI (KM12 colon) [µM],TGI (M14 melanoma) [µM],TGI (MDA-MB-435) [µM],TGI (OVCAR-3 ovarian) [µM],TGI (OVCAR-4 ovarian) [µM],TGI (OVCAR-5 ovarian) [µM],TGI (PC-3 prostate) [µM],TGI (SK-OV-3 ovarian) [µM],TGI (TK-10 renal) [µM],TGI (UACC-62 melanoma) [µM],TGI (LOX IMVI melanoma) [µM],TGI (SF-295 CNS) [µM],TGI (SK-MEL-2 melanoma) [µM]
COC(=O)C1=C(C)NC(CF)=C(C(=O)OC)C1c1cccc2c(=O)c3ccccc3oc12 (configuration not stated),33.8,94.5,> 100,> 100,> 100,–,> 100,66.8,> 100,> 100,8.57,> 100,> 100,> 100,> 100,22.7,> 100
CCN(CC)CC(C(C)=O)C(c1ccccc1)c1c(O)c2ccccc2oc1=O (configuration not stated),> 100,> 100,> 100,> 100,> 100,> 100,–,> 100,> 100,> 100,–,> 100,> 100,> 100,> 100,> 100,> 100
COc1cc2c(cc1OC)C1CN3CCCC3C(O)C1c1cc(OC)c(OC)cc1-2 (configuration not stated),> 100,> 100,> 100,> 100,> 100,> 100,> 100,–,> 100,> 100,–,> 100,> 100,> 100,> 100,> 100,> 100
COC1(OC)CCCCCCCCC(OC)(OC)CCCCCCCC1,> 100,> 100,–,> 100,> 100,> 100,> 100,> 100,–,> 100,> 100,> 100,> 100,> 100,> 100,> 100,> 100
CC(C)(C)OC(=O)NC(Cc1ccc(OC(C)(C)C)cc1)C(=O)N[C@H]1CC[C@H](C(=O)O)C1 (some centres not stated),> 100,> 100,> 100,> 100,> 100,> 100,> 100,–,–,> 100,> 100,> 100,> 100,–,> 100,> 100,> 100
Cc1c(N)c(C#N)c2n(C)c3ncccc3n2c1=O,> 100,–,> 100,> 100,> 100,> 100,–,> 100,> 100,–,–,> 100,> 100,> 100,> 100,> 100,> 100
COc1cc2c(SCCN(C)C)nc3ccccc3c2c2ccccc12,3.76,35.8,4.56,> 100,2.69,3.46,3.3,7.79,9.22,4.03,8.24,25.6,7.23,3.12,–,3.45,4.03
O=S(=O)(N=[Se](=O)(c1ccccc1)c1ccccc1)c1ccccc1,> 100,> 100,> 100,> 100,> 100,> 100,> 100,> 100,> 100,> 100,> 100,> 100,> 100,–,> 100,> 100,> 100
CC12CCC(=O)N1[C@@H](c1ccccc1)[C@@H](c1ccccc1)O2 (some centres not stated),> 100,> 100,> 100,> 100,> 100,> 100,–,> 100,> 100,> 100,–,> 100,–,> 100,> 100,> 100,> 100
COC(=O)c1ccccc1/C=C1\Cc2ccc3c(c2C1=O)CCC3,> 100,> 100,> 100,> 100,> 100,–,> 100,> 100,> 100,> 100,> 100,> 100,> 100,> 100,> 100,> 100,–
[N-]=[N+]=NC1(Cc2ccccc2)C(=O)Nc2ccccc2C1=O (configuration not stated),> 100,> 100,> 100,> 100,> 100,> 100,–,> 100,> 100,> 100,–,> 100,> 100,> 100,> 100,> 100,> 100
CC1(C)COC(c2cccc(C(O)c3ccc(Cl)cc3)c2)=N1 (configuration not stated),59.8,–,> 100,> 100,> 100,45.1,67.3,45.7,> 100,45.5,53.8,65.1,76.3,44.9,29.1,–,47.5
O=C(c1ccc(Cl)c(Cl)c1)N(C(=S)OC12CC3CC(CC(C3)C1)C2)c1ccccc1,> 100,> 100,> 100,> 100,> 100,48.3,> 100,> 100,> 100,> 100,> 100,> 100,> 100,98.5,–,> 100,40.5
COC(=O)CSc1cc(Cl)c(C)cc1S(=O)(=O)Nc1n[nH]c(N)n1,> 10,> 10,> 10,> 10,> 10,> 10,–,> 10,> 10,> 10,> 10,> 10,> 10,–,> 10,> 10,> 10
Cc1cc(N(CCC#N)CCC#N)ccc1/C(Sc1ccccc1)=C(\NC(=O)/C=C/c1ccccc1)C(=O)Sc1ccccc1,8.8,16.5,15.3,> 58.7,15.3,6.3,–,15.8,18.6,16.3,–,19.8,25.2,12.3,2.52,14.7,16.6
